Here are results for seven molecules from patent US20080242878A1, “Semi-Synthetic Taxane Derivatives With Antitumor Activity” (priority 2005, published 2008).

One experiment deals with MCF7. The experiment is described as follows: Cytotoxicity, SRB test, 72 h exposure, MCF7. To be noted: Homo sapiens, MCF7, 72 h, read-out: Cytotoxicity (IC50 (nM) 72 h exposure of cells to compound ± SE (SRB test) MCF7). On the technique in general: Sulforhodamine B stains cellular protein and so reports cell mass.
The subject of another experiment is MCF7/R. The experiment is described as follows: Cytotoxicity, SRB test, 72 h exposure, MCF7/R (resistant cells). The settings on record: for IC50: Homo sapiens, MCF7R, 72 h, read-out: Cytotoxicity (IC50 (nM) 72 h exposure of cells to compound ± SE (SRB test) MCF7/R); for RI (cross-resistance index): IC50 MCF7/R versus IC50 MCF7.

In the case of `CO/C1=C(\C)C([C@]2(OC(C)=O)CO[C@@H]2CCOCSC)[C@H](OC(=O)c2ccccc2)[C@]2(O)C[C@H](OC(=O)[C@H](O)[C@H](CC(C)C)NC(=O)OC(C)(C)C)C(C)=C(C1=O)C2(C)C` (stereo partly drawn) [Ex. 2, 13-(N-Boc-β-isobutyl-isoserinoyl)-9-O-methyl-7-O-methylthiomethyl-C7,8-seco-10-deacetylbaccatin III], the IC50 in the experiment with MCF7 amounted to 103 ± 13 nM. In the experiment with MCF7/R, the IC50 was determined as 558 ± 28 nM and the “RI (cross-resistance index)” value is on record as 5.4.

On to `CO/C1=C(\C)C([C@]2(OC(C)=O)CO[C@@H]2CCO)[C@H](OC(=O)c2ccccc2)[C@]2(O)C[C@H](OC(=O)[C@H](O)[C@H](CC(C)C)NC(=O)OC(C)(C)C)C(C)=C(C1=O)C2(C)C` (stereo partly drawn) [Ex. 3, 13-(N-Boc-β-isobutyl-isoserinoyl)-9-O-methyl-C7,8-seco-10-deacetylbaccatin III], for which the IC50 in the experiment on MCF7 turned out to be 38 ± 3.9 nM. In addition, in the experiment on MCF7/R, the IC50 is 945 ± 40 nM and the “RI (cross-resistance index)” value came out at 25.

For the molecule `CSCOCC[C@H]1OC[C@@]1(OC(C)=O)C1/C(C)=C(/O)C(=O)C2=C(C)[C@@H](OC(=O)[C@H](O)[C@H](CC(C)C)NC(=O)OC(C)(C)C)C[C@@](O)([C@H]1OC(=O)c1ccccc1)C2(C)C` (stereo partly drawn) [Ex. 4, 13-(N-Boc-β-isobutylisoserinoyl)-7-O-methylthiomethyl-C7,8-seco-10-deacetylbaccatin III], in the experiment on MCF7, the IC50 is 26 ± 2.1 nM. For the same molecule, in the experiment with MCF7/R, the IC50 is 501 ± 41 nM and the “RI (cross-resistance index)” value came out at 19.

Consider `CSCOCC[C@H]1OC[C@@]1(OC(C)=O)C1/C(C)=C(/OCSC)C(=O)C2=C(C)[C@@H](OC(=O)[C@H](O)[C@H](CC(C)C)NC(=O)OC(C)(C)C)C[C@@](O)([C@H]1OC(=O)c1ccccc1)C2(C)C` (stereo partly drawn) [Ex. 5, 13-(N-Boc-β-isobutylisoserinoyl)-7,9-O-bis(methylthiomethyl)-C7,8-seco-10-deacetylbaccatin III], for which, in the experiment on MCF7, the IC50 turned out to be 58 ± 5.9 nM. Moreover, in the experiment on MCF7/R, the IC50 was 333 ± 23 nM and the “RI (cross-resistance index)” value came out at 5.7.

Regarding `CO/C1=C(\C)C([C@]2(OC(C)=O)CO[C@@H]2CCOC(C)=O)[C@H](OC(=O)c2ccccc2)[C@]2(O)C[C@H](OC(=O)[C@H](O)[C@H](CC(C)C)NC(=O)OC(C)(C)C)C(C)=C(C1=O)C2(C)C` (stereo partly drawn) [Ex. 6, 13-(N-Boc-β-isobutylisoserinoyl)-9-O-methyl-7-O-acetyl-C7,8-seco-10-deacetylbaccatin III], in the experiment on MCF7, the IC50 was 66 ± 5.4 nM. In the experiment on MCF7/R, the IC50 stood at 747 ± 45 nM and the “RI (cross-resistance index)” value was 11.

As to `COCC[C@H]1OC[C@@]1(OC(C)=O)C1/C(C)=C(/OC)C(=O)C2=C(C)[C@@H](OC(=O)[C@H](O)[C@H](CC(C)C)NC(=O)OC(C)(C)C)C[C@@](O)([C@H]1OC(=O)c1ccccc1)C2(C)C` (stereo partly drawn) [Ex. 7, 13-(N-Boc-β-isobutylisoserinoyl)-7,9-of-O-methyl-C7,8-seco-10-deacetylbaccatin III], in the experiment with MCF7, the IC50 came to 25.5 ± 2.6 nM. Further, in the experiment on MCF7/R, the IC50 is 168 ± 9.5 nM and the “RI (cross-resistance index)” value was 6.6.

In the case of `CC(=O)O[C@@]1(C2/C(C)=C(/O)C(=O)C3=C(C)[C@@H](OC(=O)[C@H](O)[C@H](CC(C)C)NC(=O)OC(C)(C)C)C[C@@](O)([C@H]2OC(=O)c2ccccc2)C3(C)C)CO[C@@H]1CCO` (stereo partly drawn) [IDN 5390, reference compound], the IC50 in the experiment with MCF7 came out at 11.2 ± 0.81 nM. Also, in the experiment with MCF7/R, the IC50 came out at 1040 ± 93 nM and the “RI (cross-resistance index)” value came out at 93.
